# Key:
# Dermal human fibroblasts = assay: Elastic fiber formation in the presence of lysyl oxidase inhibitor; type: cell-based; settings: BAPN added at various time points relative to tropoelastin addition; 72 hours culture
# Protocol: The effect of the lysyl oxidase inhibitor BAPN on elastic fiber formation in this system was studied.
# Dermal human fibroblasts were grown for 12 days prior to tropoelastin addition as described. Cells were cultured for a further 72 hours after tropoelastin addition. BAPN was added at various time points relative to tropoelastin addition. Samples were stained for elastin and nuclei as described above.
# human skin fibroblasts = assay: In vitro assay system for elastic fiber synthesis, human skin fibroblasts; type: cell-based; settings: 7 days
# Protocol: Cells were cultured in Dulbecco's Modified Eagle Medium High Glucose (DMEM; Invitrogen) containing 10% fetal bovine serum (FBS; Invitrogen) and 1% (v/v) penicillin/streptomycin (Invitrogen). Media were changed every 2-3 days. Cells were incubated at 37° C. and 5% CO2. To assess the capacity of cells to form elastin fibers 1×10^5 cells were seeded onto glass coverslips in 12 well culture plates. Ten to 17 days post-seeding full-length tropoelastin (Elastagen), or an alternative elastin-derived protein, in PBS was filter-sterilized and added to the cell cultures. Alternative elastin-derived proteins included human skin elastin peptides (Elastin Products Company; HSP72), a C-terminal tropoelastin deletion construct ARKRK (Weiss lab) and a C-terminal tropoelastin substitution construct containing RGDS (Weiss lab). Fiber formation was also assessed in the presence of 50 μM blebbistatin (Sigma). For experiments assessing the effect of repeated tropoelastin additions the protein was added 10, 17 and 24 days post-seeding. Cell matrix thickness was determined by averaging the number of 0.41 μm z slices required to image from the uppermost nuclei to the bottom of the sample in ten randomly chosen fields of view.
# At set time points after tropoelastin addition, cells were fixed with either 3% (w/v) formaldehyde or 4% (w/v) paraformaldehyde for 20 min and quenched with 0.2 M glycine. […]
compound,measurement,setting,value
N#CCCN [BAPN],elastic fiber formation in the presence of BAPN,Dermal human fibroblasts,prevents fiber formation
Cc1ccc2c(c1)C(=O)C1(O)CCN(c3ccccc3)C1=N2 (stereo not drawn) [blebbistatin],elastin fiber formation in the presence of blebbistatin,"human skin fibroblasts; 50 μM blebbistatin added at the same time as 125 μg/ml tropoelastin, neonatal fibroblasts",substantially impaired
+RGDS,elastin network formation,human skin fibroblasts; 125 μg/ml protein added to primary human neonatal skin fibroblasts (NHF8909) 12 days post-seeding,Spherule rather than fiber deposition

# Source: patent US20190328845A1, “IN VIVO SYNTHESIS OF ELASTIC FIBER” (ALLERGAN PHARMACEUTICALS INTERNATIONAL LIMITED, priority 2011, published 2019)
